Measurements from patent US20240279201A1, “DUAL WNT SIGNALING PATHWAY INHIBITORS AND AMPK ACTIVATORS FOR TREATMENTS OF DISEASE” (priority 2021, published 2024).

Legend:
[1] = Cytotoxicity (CC50) during the luciferase gene reporter assay; type: cell-based; conditions: human, HEK293 cells; short treatment duration of the luciferase gene reporter assay
AMPK [2] = experiment: AMPK activation in SW620 cells (immunoblotting); type: cell-based
Method: HEK293 cells were stained with anti-axin-1 or DAPI and studied under fluorescence microscopy. FIG. 26B is an image illustrating enhanced AMPK phosphorylation by Axin overexpression (empty pcDNA3 vs. pcDNA3-Axin-1) in HEK293 cells. […] See FIG. 23A-FIG. 23C for Axin knockdown. […] Cells were treated for 24 h.
Treatment of compound YW2049 indicated no effects on total protein levels of AMPK and ACC in SW620 cells.
The effects of FX analogs in Axin stabilization and AMPK activation were further studied by genetic manipulation of Axin. Axin overexpression led to enhanced AMPK activation (FIG. 26A and FIG. 26B). In contrast, it has been reported that knockdown of Axin in cells and in mouse liver impairs AMPK activation. […] This timeline is consistent with the reports that Axin can form a complex with AMPK.

Axin 1 = Axin 1 (Homo sapiens (Human), UniProt O15169); experiment: Western blotting of Axin 1 in HEK293 cells; type: cell-based; conditions: 100 nM, 24 h
Method: (§1) FIG. 6A-FIG. 6E illustrate the development of Axin stabilizers with dual activities of Wnt inhibition and AMPK activation. […] HEK293 cells were used. B&C: 100 nM compounds, 24 h. FIG. 6D is a table showing the activity profile of YA6060. F=bioavailability; soubility is aqueous solubility.
(§2) A dual-luciferase gene reporter assay was used to test inhibitory activities of new compounds on Wnt signaling. […] Axin is also reported to form a complex with AMPK and its upstream kinase LKB1 (FIG. 12A and FIG. 12B) to facilitate AMPK activation. Therefore, the effects of new compounds on AMPK was examined. […] YA6060 and its analogs had dual activities of potent Wnt signaling inhibition and AMPK activation, which were dependent on the levels of scaffolding protein Axin.

RPS6KA3 = RPS6KA3 (Homo sapiens (Human), UniProt P51812); experiment: Off-target kinase panel, RPS6KA3; conditions: read-out: inhibition of RPS6KA3
Sequence of RPS6KA3 (P51812 whole entry, species assumed): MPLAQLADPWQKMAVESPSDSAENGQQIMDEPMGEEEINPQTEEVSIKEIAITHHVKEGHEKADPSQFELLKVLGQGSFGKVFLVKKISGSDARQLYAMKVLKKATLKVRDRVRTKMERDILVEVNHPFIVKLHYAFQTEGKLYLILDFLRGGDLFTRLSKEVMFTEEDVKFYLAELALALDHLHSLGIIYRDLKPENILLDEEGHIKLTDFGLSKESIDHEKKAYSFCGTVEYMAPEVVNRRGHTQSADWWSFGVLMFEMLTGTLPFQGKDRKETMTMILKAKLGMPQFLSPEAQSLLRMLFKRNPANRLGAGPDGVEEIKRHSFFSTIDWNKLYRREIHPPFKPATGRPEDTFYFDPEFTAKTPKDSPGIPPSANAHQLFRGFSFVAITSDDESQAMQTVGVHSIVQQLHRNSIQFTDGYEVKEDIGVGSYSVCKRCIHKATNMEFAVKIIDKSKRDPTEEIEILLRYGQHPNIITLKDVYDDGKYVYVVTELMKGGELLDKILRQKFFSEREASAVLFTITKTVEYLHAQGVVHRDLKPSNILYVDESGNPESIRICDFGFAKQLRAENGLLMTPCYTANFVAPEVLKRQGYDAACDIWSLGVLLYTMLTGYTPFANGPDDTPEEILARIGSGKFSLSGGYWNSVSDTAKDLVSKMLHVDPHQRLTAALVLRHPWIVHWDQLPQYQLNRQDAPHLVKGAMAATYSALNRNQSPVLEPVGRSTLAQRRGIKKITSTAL

AMPK [3] = experiment: Western blotting of phosphorylated AMPK in HEK293 cells; type: cell-based; conditions: 100 nM, 24 h
Method: as §1, §2

[4] = system: Wnt signaling in SW620 cells; experiment: Luciferase gene reporter (TOPflash) assay in SW620 cells; type: cell-based; conditions: Homo sapiens, SW-620, read-out: IC50, inhibition of Wnt signaling
[5] = system: Wnt signaling in SW480 cells; experiment: Luciferase gene reporter (TOPflash) assay in SW480 cells; type: cell-based, human
SW480 cells = experiment: Mitochondrial function in SW480 cells
β-catenin = β-catenin (Homo sapiens (Human), UniProt P35222); experiment: Western blotting of β-catenin in HEK293 cells; type: cell-based; conditions: 100 nM, 24 h
Method: as §1, §2

HT29 cells = experiment: Viability of HT29 cells; type: cell-based; conditions: Homo sapiens, HT-29, read-out: IC50, cell viability
in vivo = conditions: C57/BL6, mouse, in vivo, po
Method: (§3) The ADMET and PK properties of YA6060 was determined.
PK/Tox. The four selected compounds from in vitro evaluation above are subjected to PK and toxicity assessment in C57/BL6 mice. […] Compound concentrations is determined by LC/MS/MS. PK analysis is carried out on Phoenix Winnolin using non-compartmental analysis and compartment models. Compound accumulation in major tissues, including liver, kidney, heart, brain and intestine, are quantified. […] For study ii, a half number of mice per group are sacrificed immediately after the 3-week course and the remaining after a 2-week washout period to assess delayed toxicity. In toxicity studies, blood is collected upon euthanasia for liver and renal chemistries and complete blood counts, and major organs harvested and examined macro- and microscopically by veterinarian pathologists. It is expected that an understanding of PK properties, such as bioavailability, AUC, clearance, and toxic effects, such as general tolerance and specific toxicity in the liver, kidney, other major organs, and particularly Wnt-dependent tissues, such as intestine, stomach, and skin is established for these selected compounds.

physchem = conditions: water, aqueous solubility
Method: as §3
Determination of physiochemical properties. The profiles of six selected analogs is estimated in silico, and selected Axin stabilizers are evaluated in in vitro assays: the aqueous solubility is determined using a multiscreen solubility filter plate (Millipore, Billerica, MA) coupled with LC-MS/MS, as performed for the already synthesized YA6060 analogs; the cell viability assays on selected analogs is measured using HEK293 cells; the intestinal permeability by determining the transport from the apical to the basolateral (A to B) in Caco-2 monolayers; the metabolic stability by incubating the compounds with mouse microsomes and liver tissue S9 fraction and analyzing by LC-MS/MS.

[6] = system: SW480, SW620, and HT29 cells; experiment: Colony formation assay; type: cell-based
Source text: FIG. 23A is an image illustrating a colony formation assay. […] The orange circle indicates cells in early apoptosis.

SW620 xenograft = SW620 xenograft in nude mice; type: in vivo
CRC cells = conditions: as reported in literature; cited from earlier work
HEK293 cells = experiment: Cytotoxicity (CC50) during the luciferase gene reporter assay; type: cell-based; conditions: short treatment duration of the luciferase gene reporter assay
[7] = system: Wnt/β-Catenin signaling pathway; experiment: Wnt signaling luciferase (TOPflash) reporter gene assay; type: cell-based; conditions: for IC50: luciferase reporter gene assay, mean of three independent experiments, read-out: IC50 (nM) to inhibit the Wnt signaling activity
Source text: A dual-luciferase gene reporter assay was used to test inhibitory activities of new compounds on Wnt signaling. […] Therefore, the effects of new compounds on AMPK was examined. […]

Q: Which results are given for `Cc1c(C(=O)Nc2ccc3ccccc3n2)cnn1-c1ccccc1Br` [YW2065]?
A: CC50 [1]: > 92000 nM; p-AMPK levels (AMPK [2]): increased; level of Axin 1 (Axin 1): stabilizing; inhibition at 1000 µM (RPS6KA3): 39%; levels of phosphorylated AMPK (p-AMPK) (AMPK [3]): significantly increased; IC50 [4]: 0.19 nM; extent of inhibition of Wnt signaling activity in reporter assays [5]: could abolish Wnt activity at high concentrations; IC50 ([5]; Homo sapiens, read-out: IC50, inhibition of Wnt signaling): 1.2 nM; O2 consumption rate and ATP production (SW480 cells): reduced O2 consumption rate; protein level of β-catenin (β-catenin): decreased; IC50 (HT29 cells): 17000 nM; bioavailability (in vivo): 13%; solubility (physchem): < 10 µg/mL; colony formation [6]: inhibited the colony formation; tumor growth and tumor weight (SW620 xenograft; i.p. each day, dose-dependent): reduced both tumor growth; body weight gain (SW620 xenograft; mouse, in vivo): not affected

Q: Which “IC50 in killing CRC cells” value (CRC cells) does the source give for `O=c1[nH]cc(F)c(=O)[nH]1` [5-FU] here?
A: low μM

Q: With `Cc1ccccc1-n1nnc(C(=O)Nc2ccc3ccccc3n2)c1C` [YW1128] as the compound, how does the p-AMPK levels (AMPK [2]) read?
A: increased

Q: For `O=C1[O][Pt]2([NH][C@@H]3CCCC[C@H]3[NH]2)[O]C1=O` [oxaliplatin], which “IC50 in killing CRC cells” value (CRC cells) is on record?
A: low μM

Q: Which CC50 (HEK293 cells) does the source give for `Cc1ccccc1-n1nnc(C(=O)Nc2ccc3cc(CN4CCNCC4)ccc3n2)c1C` [YA10951, 5-Methyl-N-(6-(piperazin-1-ylmethyl)quinolin-2-yl)-1-(o-tolyl)-1H-1,2,3-triazole-4-carboxamide] here?
A: > 92000 nM

Q: What about the IC50 [7] of the same compound?
A: 4.3 nM

Q: Which CC50 [1] does the source give for `Oc1nc(-c2ccc(C(F)(F)F)cc2)nc2c1CSCC2` [XAV939, reference compound] here?
A: > 92000 nM

Q: And the “extent of inhibition of Wnt signaling activity in reporter assays” value [5]?
A: could not fully inhibit Wnt signaling activity

Q: And the inhibition at 1 µM [7]?
A: 74%

Q: What does the source list for `O=C(Nc1ccc2ccccc2n1)c1nnn(-c2ccccc2)n1` [YA6171, 2-Phenyl-N-(quinolin-2-yl)-2H-tetrazole-5-carboxamide]?
A: CC50 [1]: > 92000 nM; IC50 [7]: > 1000 nM
